Test results reported in US4292249A, “25-Hydroxy-24-oxocholestane derivatives and preparation thereof” (priority 1979, dated 1981).

Experiments:
[1] = target: T1, 1α,25-dihydroxy cholecalciferol-receptor in the chick's intestinal tube (Gallus gallus, UniProt O42392); test: Combination (binding) with the 1α,25-dihydroxy cholecalciferol-receptor, competitive displacement
T1 construct: 1α,25-dihydroxy cholecalciferol-receptor in the chick's intestinal tube; from tissue; host or cells: chick intestine
T1 sequence (O42392 1-451): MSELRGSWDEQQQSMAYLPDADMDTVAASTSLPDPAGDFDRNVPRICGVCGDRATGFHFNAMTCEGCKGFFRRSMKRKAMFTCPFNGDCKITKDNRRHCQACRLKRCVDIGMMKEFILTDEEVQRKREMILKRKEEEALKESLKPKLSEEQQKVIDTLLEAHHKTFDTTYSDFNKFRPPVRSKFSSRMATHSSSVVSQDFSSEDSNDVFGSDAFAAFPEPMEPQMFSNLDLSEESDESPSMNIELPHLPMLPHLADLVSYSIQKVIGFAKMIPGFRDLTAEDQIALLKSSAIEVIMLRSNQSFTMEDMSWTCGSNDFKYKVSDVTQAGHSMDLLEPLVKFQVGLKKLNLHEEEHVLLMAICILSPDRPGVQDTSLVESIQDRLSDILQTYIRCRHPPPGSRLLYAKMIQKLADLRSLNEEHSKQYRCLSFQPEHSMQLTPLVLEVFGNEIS

[2] = test system: calcium absorption at the intestinal tube; test: Effect to promote calcium absorption from the intestinal tract (everted gut sac method); format: in vivo, Wistar male rats; conditions: vitamin D-deficient rats, 250 ng/head intravenously, measured 4, 8, 24 and 48 hour later
Experimental: They were killed 4 hour, 8 hour, 24 hour and 48 hour later, and calcium absorption at the intestinal tube was measured by the everted gut sac method [see Martin, D. L. and Deluca, H. F., Amer, J. Physiol.

Compound | 50% Displacement ([1]; chick intestinal receptor) [pg] | Molar ratio ([1]; relative to 1α,25-dihydroxy cholecalciferol = 1) | time after administration at which the effect on intestinal calcium absorption showed [2] | time for which the effect on intestinal calcium absorption continued [2] [h]
C=C1/C(=C\C=C2/CCC[C@]3(C)[C@@H]([C@H](C)CCC(=O)C(C)(C)O)CC[C@@H]23)C[C@@H](O)C[C@@H]1O [1α,25-dihydroxy-24-oxo-cholecarciferol, 1α,25-dihydroxy-24-oxo cholecalciferol] | 138 | 3 | – | –
C=C1CC[C@H](O)C/C1=C/C=C1\CCC[C@]2(C)[C@@H]([C@H](C)CCC(=O)C(C)(C)O)CC[C@@H]12 [25-hydroxy-24-oxo-cholecalciferol, 25-hydroxy-24-oxocholecalciferol] | – | – | about 4 hours | 44
